A short description of test [1]: cytotoxicity toward DRD oncogenic fibroblasts, dose response, cell-based, non-viral oncogenic, luminescence (AID 1934). It is filed as functional. To be noted: Homo sapiens.
For test [2], the system named is BJ. Kind of test: cells. Type of test: functional, cell-based. To be noted: Homo sapiens.
A short description of test [3]: Luminescence Cell-Based Dose Response HTS to Identify Inhibitors of 5'UTR Stem-Loop Driven Prion Protein mRNA Translation in H4 Neuroglioblastoma Cells. [Related pubchem assays: 1827 (Project Summary), 1813 (Primary HTS)]. It is filed as functional.
The nature of test [4]: inhibitors of SNCA 5'UTR-driven reporter translation, confirmation, H4 neuroglioma cells, luminescence (AID 1988). Type of test: functional, cell-based.
For test [5], the system named is BJ. Description: cytotoxicity toward BJ-TERT fibroblasts, dose response, cell-based, RAS-independent, luminescence (AID 1933). Type of test: functional. The settings on record: Homo sapiens.
For test [6], the system named is BJ. Kind of test: cytotoxicity toward Ras-transformed BJeLR fibroblasts, dose response, cell-based, alamar blue fluorescence, cherrypicked samples (AID 2631).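 Also: confirmatory dose-response assay in RAS-dependent BJ fibroblasts engineered with TERT, LT and ST, with cytotoxicity read by fluorescence.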 It is filed as functional. The settings on record: Homo sapiens. For orientation: The colour change of resazurin is a common sign of viable cells or microbes.
The test system of test [7] is BJ. Description: cytotoxicity toward BJ-TERT-LT-ST fibroblasts, dose response, cell-based, RAS-independent, luminescence (AID 1935).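 Also: BJ fibroblasts immortalized with TERT plus LT and ST oncogenes.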 Type of test: functional. The settings on record: Homo sapiens.
Test [8] is described as follows: inhibitors of firefly luciferase expression or activity, dose response, H4 neuroglioma cells, luminescence (AID 1990). It is filed as functional, cell-based.
Test [9] relates to HEK293. Kind of test: cytotoxicity in HEK293T NF-kB-Luc cells, SAR follow-up, cytotoxicity control for NF-kB activator project, cell-based, resazurin fluorescence (AID 493251). Type of test: functional. The settings on record: Homo sapiens.
In test [10] the target is Cyclin-dependent kinase 9 (Homo sapiens, UniProt P50750). Type of test: functional.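 Also: value from the CDK9 entry of a kinome-spanning kinase panel.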
Test [11] addresses Cell division cycle 7-related protein kinase (Homo sapiens, UniProt O00311). It is filed as functional.
The target of test [12] is Cyclin-dependent kinase 7 (Homo sapiens, UniProt P50613). It is filed as functional.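 Also: value comes from a kinome-wide kinase profiling panel in which CDK7 is one member.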
A short description of test [13]: THP-1 cell cytotoxicity, cytotoxicity control, set 4 (AID 504911). It is filed as functional. To be noted: Mycobacterium tuberculosis.
Test [14] deals with T1, Sentrin-specific protease 8 (Homo sapiens, UniProt Q96LD8).
T1 sequence (Q96LD8 whole entry): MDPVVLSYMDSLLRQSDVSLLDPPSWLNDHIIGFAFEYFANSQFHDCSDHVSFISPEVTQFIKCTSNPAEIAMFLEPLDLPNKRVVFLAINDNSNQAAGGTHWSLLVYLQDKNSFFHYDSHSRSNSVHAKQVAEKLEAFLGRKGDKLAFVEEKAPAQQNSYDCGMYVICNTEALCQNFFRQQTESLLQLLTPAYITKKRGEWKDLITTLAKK
Type of test: functional.

The target of test [15] is T1, Sentrin-specific protease 8. It is filed as functional. This is another data set of the same source.
The target of test [16] is Glucose-6-phosphate 1-dehydrogenase (Homo sapiens, UniProt P11413). Kind of test: human G6PD enzyme inhibitors, dose response, selectivity assay for P. falciparum G6PD inhibitor project, biochemical, fluorescence (AID 504792). Type of test: functional.

Activity calls are given as the source filed them.

Usually EC50 stands for the midpoint of the concentration-response curve. By IC50 is commonly meant the concentration that inhibits the measured activity by half. As usually defined, the Ki is a dissociation constant, usually derived from enzyme kinetics or from competition with a known ligand. By CC50 is commonly meant the concentration giving 50% cytotoxicity.

Cyclin-dependent kinase 9, sequence (P50750 whole entry): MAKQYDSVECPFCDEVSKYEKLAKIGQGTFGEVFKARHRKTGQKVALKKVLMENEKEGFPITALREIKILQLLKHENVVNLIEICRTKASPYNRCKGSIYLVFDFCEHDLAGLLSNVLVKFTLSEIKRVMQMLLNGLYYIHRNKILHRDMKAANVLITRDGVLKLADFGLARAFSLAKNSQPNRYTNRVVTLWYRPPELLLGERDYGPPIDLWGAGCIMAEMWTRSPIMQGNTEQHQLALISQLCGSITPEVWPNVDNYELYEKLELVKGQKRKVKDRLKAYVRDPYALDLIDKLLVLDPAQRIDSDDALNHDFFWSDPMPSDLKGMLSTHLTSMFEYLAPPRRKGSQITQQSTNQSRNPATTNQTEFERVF
Glucose-6-phosphate 1-dehydrogenase, sequence (P11413 whole entry): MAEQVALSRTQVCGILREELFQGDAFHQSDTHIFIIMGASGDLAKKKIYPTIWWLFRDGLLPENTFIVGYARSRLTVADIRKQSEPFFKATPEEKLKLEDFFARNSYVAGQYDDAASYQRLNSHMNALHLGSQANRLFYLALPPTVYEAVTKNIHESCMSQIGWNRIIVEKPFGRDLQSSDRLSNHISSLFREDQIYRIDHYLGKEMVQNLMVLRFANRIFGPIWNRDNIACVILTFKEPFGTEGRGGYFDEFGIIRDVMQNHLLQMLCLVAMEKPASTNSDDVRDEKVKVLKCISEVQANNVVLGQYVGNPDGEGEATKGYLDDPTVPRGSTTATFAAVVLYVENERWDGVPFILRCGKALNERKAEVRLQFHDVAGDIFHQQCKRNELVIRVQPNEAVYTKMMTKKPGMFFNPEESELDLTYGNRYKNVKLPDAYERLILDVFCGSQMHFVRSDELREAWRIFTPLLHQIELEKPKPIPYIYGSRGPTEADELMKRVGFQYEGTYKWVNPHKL
Cell division cycle 7-related protein kinase, sequence (O00311 whole entry): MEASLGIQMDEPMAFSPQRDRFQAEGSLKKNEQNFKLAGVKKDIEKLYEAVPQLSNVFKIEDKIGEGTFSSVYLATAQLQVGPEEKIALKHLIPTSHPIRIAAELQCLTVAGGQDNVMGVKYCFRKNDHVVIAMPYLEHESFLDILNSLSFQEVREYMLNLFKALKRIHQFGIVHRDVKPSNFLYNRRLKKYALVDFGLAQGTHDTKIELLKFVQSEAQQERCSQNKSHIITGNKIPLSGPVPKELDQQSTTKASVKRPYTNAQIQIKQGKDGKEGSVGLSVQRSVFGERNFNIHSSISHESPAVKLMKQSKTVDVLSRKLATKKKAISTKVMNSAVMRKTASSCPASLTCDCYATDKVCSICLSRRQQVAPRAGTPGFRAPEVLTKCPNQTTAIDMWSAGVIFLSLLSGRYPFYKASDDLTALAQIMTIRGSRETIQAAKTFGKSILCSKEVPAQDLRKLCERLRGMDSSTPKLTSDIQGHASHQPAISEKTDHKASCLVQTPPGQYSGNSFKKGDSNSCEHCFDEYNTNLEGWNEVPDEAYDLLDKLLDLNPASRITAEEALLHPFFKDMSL
Cyclin-dependent kinase 7, sequence (P50613 whole entry): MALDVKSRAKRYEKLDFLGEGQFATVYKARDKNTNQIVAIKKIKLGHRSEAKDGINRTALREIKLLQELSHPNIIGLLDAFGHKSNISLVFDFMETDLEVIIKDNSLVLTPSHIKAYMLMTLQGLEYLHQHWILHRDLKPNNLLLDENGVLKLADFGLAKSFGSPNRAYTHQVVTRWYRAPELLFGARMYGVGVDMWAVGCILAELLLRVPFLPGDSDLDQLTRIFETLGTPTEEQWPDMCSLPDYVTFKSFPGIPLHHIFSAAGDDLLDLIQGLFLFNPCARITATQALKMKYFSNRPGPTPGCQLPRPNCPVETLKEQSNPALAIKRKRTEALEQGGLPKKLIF

As for `N#CC1=C(N)Oc2cc(N)ccc2C1c1cccc(Br)c1` (centres undefined), the EC50 was 0.658 µM (active) in test [1]; 0.702 µM (active) in test [2]; 0.502 µM (active) in [3]; 0.18 µM (active) in test [4]; 1.2 µM (active) in test [5]; 0.182 µM (active) in test [6]. For the same molecule, the figures for the 50% effective concentration (EC50) in [7] and in test [8] were 0.859 µM (inconclusive) and 1.83 µM (active), respectively.
For `COC(=O)CCc1nc(-c2ccc(C(C)(C)C)cc2)no1`, the IC50 in test [9] was > 80 µM (inactive).
Consider `NC(=O)c1ccc(-c2ccncc2)cc1N1CCCC1`, for which the Ki in test [10] was 1 µM (active); in test [11], 0.126 µM (active); in [12], > 2.51 µM (inactive).
Take `O=C(CSc1ncccn1)NC1CCCCC1`: the cytotoxic concentration (CC50) in test [13] was > 100 µM (active).
Consider `Cc1ccc(Nc2cc(C)c(O)c(C)c2)cc1`, for which the IC50 in test [14] was 23.7 µM (active); in test [15] it was 13.9 µM (active); in [16], 40 µM (inactive).
For the molecule `Cc1cc2nc(/C=C/c3cccnc3)[nH]c2cc1C`, the concentration for a half-maximal effect (EC50) in test [1] was 1.42 µM (inconclusive); in [2] it was 1.89 µM (inconclusive); in test [3], 0.318 µM (active); in test [4] it was 0.154 µM (active); in test [5] it was 0.553 µM (inconclusive); in test [6], < 0.104 µM (active). For the same molecule, the concentration for a half-maximal effect (EC50) is 15.1 µM (inconclusive) in [7] and 0.336 µM (inconclusive) in test [8].
